# Experimental data as given in ChEMBL document CHEMBL1201862, “PubChem BioAssay data set” (2004).
# Counter-ions that a name gives are not always drawn. Activity calls are given as the source filed them. For most assays here, no stated cut-off is given here; in the data, actives have a measured EC50 and inactives only a lower limit. Non-standard residues stand in square brackets, D forms with d. Residues, ends and D or L forms follow the SMILES beside them. ξ: configuration not given here. Pen = CC(C)(S)[C@H](N)C(=O)O; ξL = CC(C)CC(N)C(=O)O
# What was measured:
# [1] = molecular target: Luciferin 4-monooxygenase (Photinus pyralis, UniProt P08659); experiment: firefly luciferase enzyme inhibitors, dose response, biochemical, luminescence (AID 1891)
# Chain of Luciferin 4-monooxygenase (P08659 whole entry): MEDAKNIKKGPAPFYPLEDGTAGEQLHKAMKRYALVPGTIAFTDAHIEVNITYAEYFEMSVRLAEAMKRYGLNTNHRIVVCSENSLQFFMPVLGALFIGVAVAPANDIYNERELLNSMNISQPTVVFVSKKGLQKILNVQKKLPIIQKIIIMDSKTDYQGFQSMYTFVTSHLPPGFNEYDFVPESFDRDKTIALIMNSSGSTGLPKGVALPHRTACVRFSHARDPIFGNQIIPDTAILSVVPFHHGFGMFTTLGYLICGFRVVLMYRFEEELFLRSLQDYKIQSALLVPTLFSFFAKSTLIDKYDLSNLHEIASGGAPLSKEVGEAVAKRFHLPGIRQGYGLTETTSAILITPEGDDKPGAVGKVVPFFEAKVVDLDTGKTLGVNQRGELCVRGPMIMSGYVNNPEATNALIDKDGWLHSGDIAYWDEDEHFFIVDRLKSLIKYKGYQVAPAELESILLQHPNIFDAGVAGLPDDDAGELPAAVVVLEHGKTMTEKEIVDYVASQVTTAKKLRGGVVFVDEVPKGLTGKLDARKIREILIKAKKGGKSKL
# [2] = Luminescence Cell-Based Dose Confirmation HTS to Identify Inhibitors of Platelet Dense Granule Release. [Related pubchem assays: 1663 (Primary HTS), 1678 (Summary of Project)]; type: functional
# [3] = system: INS1; experiment: beta cell apoptosis inhibitors, cytokine rescue, dose response, luminescence, retest (AID 449756); type: functional, cell-based; conditions: Rattus norvegicus;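 further: cell death triggered by IL-1 beta plus TNF-alpha plus IFN-gamma mixture; protective hits raise ATP signal compared with cytokine alone wells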
# [4] = system: P388/ADR; experiment: cells; type: functional; conditions: Mus musculus
# [5] = system: SN12K1; experiment: cells; type: functional; conditions: Homo sapiens
# [6] = system: P388; experiment: cells; type: functional; conditions: Mus musculus
# [7] = molecular target: T1, Heat shock factor protein 1 (Mus musculus, UniProt P38532); experiment: HSF1 potentiators in luciferase reporter cells, confirmation, cell-based, NIH3T3, luminescence, dose retest (AID 435004); type: functional;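 further: stress induced by proteasome inhibitor MG132 added 30 min after compound; luciferase reporter driven by HSF1 response element in NIH3T3 cells; actives raise luminescence as potentiators of the MG132 stress response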
# T1 sequence (P38532 whole entry): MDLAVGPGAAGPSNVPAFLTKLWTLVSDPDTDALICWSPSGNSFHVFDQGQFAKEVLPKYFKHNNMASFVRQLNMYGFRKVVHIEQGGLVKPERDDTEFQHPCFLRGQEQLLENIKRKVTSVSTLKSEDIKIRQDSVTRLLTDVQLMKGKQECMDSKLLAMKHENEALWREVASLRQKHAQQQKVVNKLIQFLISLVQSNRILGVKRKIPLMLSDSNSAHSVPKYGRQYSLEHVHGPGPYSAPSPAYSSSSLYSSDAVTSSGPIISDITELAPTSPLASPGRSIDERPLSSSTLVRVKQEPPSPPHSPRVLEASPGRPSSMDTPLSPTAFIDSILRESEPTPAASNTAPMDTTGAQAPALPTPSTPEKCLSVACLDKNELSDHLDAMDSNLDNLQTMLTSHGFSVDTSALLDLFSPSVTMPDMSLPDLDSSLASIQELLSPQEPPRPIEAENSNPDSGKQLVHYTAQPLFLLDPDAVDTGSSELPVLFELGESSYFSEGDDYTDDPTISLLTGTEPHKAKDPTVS
# [8] = Luminescence Cell-Based Dose Confirmation HTS to Identify Activators of 5'UTR Stem-Loop Driven Alpha-Synuclein mRNA Translation in H4 Neuroglioblastoma Cells. [Related pubchem assays: 1829 (Project Summary), 1814 (Primary HTS)]; type: functional
# [9] = Luminescence Cell-Based Dose Response HTS to Identify Activators of Luciferase Translation or Activity in H4 […] Cells. [Related pubchem assays: 1829 (Project Summary), 1814 (Primary HTS)]; type: functional
# [10] = system: H4; experiment: Luminescence Cell-Based Dose Response HTS to Identify Activators of 5'UTR Stem-Loop Driven Prion Protein mRNA Translation in H4 Neuroglioblastoma Cells. [Related pubchem assays: 1829 (Project Summary), 1814 (Primary HTS)]; type: functional; conditions: Homo sapiens
# [11] = molecular target: T1, Heat shock factor protein 1; experiment: inhibition of MG132-induced HSE-luciferase signal, confirmation, cell-based, NIH3T3, luminescence, dose retest (AID 2382); type: functional;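 further: NIH3T3 fibroblasts with HSF1-driven luciferase reporter stressed by proteasome inhibitor MG132; luminescence from HSF1-driven luciferase expression after 8 hours of MG132 stress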
# [12] = molecular target: T2, Protein skinhead-1 (Caenorhabditis elegans, UniProt P34707); type: functional
# T2 sequence (P34707 whole entry): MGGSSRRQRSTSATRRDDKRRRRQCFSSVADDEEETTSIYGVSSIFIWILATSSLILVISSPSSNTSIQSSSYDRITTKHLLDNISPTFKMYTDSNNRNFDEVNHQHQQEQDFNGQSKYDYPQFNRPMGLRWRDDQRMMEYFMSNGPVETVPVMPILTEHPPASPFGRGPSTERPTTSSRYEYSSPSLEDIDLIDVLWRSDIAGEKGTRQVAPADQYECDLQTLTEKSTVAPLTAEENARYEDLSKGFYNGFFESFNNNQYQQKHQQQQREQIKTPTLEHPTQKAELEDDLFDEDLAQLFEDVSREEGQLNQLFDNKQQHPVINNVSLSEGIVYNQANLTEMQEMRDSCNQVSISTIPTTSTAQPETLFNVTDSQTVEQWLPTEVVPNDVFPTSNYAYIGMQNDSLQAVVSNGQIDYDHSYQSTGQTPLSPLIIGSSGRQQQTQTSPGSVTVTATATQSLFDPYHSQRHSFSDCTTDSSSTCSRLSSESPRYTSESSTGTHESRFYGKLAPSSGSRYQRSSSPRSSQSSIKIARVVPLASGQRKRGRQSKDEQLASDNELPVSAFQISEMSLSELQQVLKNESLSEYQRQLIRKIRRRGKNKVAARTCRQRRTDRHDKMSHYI
compound,measurement,setting,value
Oc1nc2cc3c(cc2cc1CN(CCc1ccccc1)Cc1nnnn1C1CCCC1)OCCO3,EC50,[1],> 112 µM (not active)
same,EC50,[2],> 112 µM (not active)
CCOC(=O)C(C)/C(C)=N/NC(=O)c1cc2ccccc2cc1O (stereo not given),AC50,[3],14.8 µM (active)
O=C(Nc1ccc(N2CCOCC2)cc1)c1nc2ccccc2s1,EC50,[1],16.4 µM (active)
same,EC50,[2],5.93 µM (active)
Cc1cc(O)c2c(c1O)C(=O)C13C(=C(O)C4C(O)C1C1C(O)C3C(O)=C3C(=O)c5c(O)cc(C)c(O)c5C(=O)C341)C2=O (stereo not given),GI50,[4],0.0461 µM (active)
same,GI50,[5],0.0506 µM (active)
same,GI50,[6],< 0.01 µM (active)
CSc1nc(NC(C)(C)C)nc(Oc2ccc(O)nn2)n1,EC50,[7],> 260 µM (inactive)
CCOc1cccc2c1OC(c1cc(OC)c(OC)c(OC)c1)N1N=C(c3ccc(C)o3)CC21 (stereo not given),EC50,[8],32 µM (active)
same,EC50,[9],28.3 µM (active)
same,EC50,[10],8.82 µM (active)
CN1/C(=C\C(=O)C[n+]2cccc(Br)c2)C(C)(C)c2ccccc21,AC50,[3],5.62 µM (active)
CCCCCCSc1nc(N)nc2nc[nH]c12,GI50,[4],12.7 µM (inactive)
same,GI50,[5],38.7 µM (inactive)
same,GI50,[6],> 40.8 µM (inactive)
COc1cc(C)c(S(=O)(=O)N2CCN=C2c2ccccc2)cc1C,EC50,[7],> 260 µM (inactive)
O=C(Cn1ncc(N2CCOCC2)c(Br)c1=O)c1ccc(Cl)cc1,EC50,[8],> 120 µM (not active)
same,EC50,[9],7.93 µM (active)
same,EC50,[10],17 µM (active)
COc1cccc(NC(=O)CSc2nc3c4ccccc4nc-3c(O)n2C)c1,EC50,[7],> 260 µM (inactive)
CC(C)(C)c1cccc(/C=N/O)c1O,EC50,[7],> 260 µM (inactive)
CC(=O)OCC1OC(Nc2ncc(-c3ccc(C)cc3)s2)C(OC(C)=O)C(OC(C)=O)C1OC(C)=O (stereo not given),GI50,[4],25.2 µM (inactive)
same,GI50,[5],46.8 µM (inactive)
same,GI50,[6],28.4 µM (inactive)
O=C(CSc1nc2nccnc2c(=O)n1Cc1cccs1)Nc1ccccc1F,EC50,[7],> 260 µM (inactive)
CCn1c(=O)cc(N2CCN(Cc3ccccc3)CC2)[nH]c1=O,EC50,[1],> 112 µM (not active)
same,EC50,[2],> 112 µM (not active)
O=[N+]([O-])c1ccc(N2CCCC2)c2ccncc12,EC50,[11],31.2 µM (active)
same,IC50,[12],> 100 µM (inactive)
CSCC[C@H](NC(=O)C(CC(C)C)NC(=O)[C@H](Cc1c[nH]cn1)NC(=O)CNC(=O)[C@@H](NC(=O)[C@@H](C)NC(=O)[C@H](Cc1c[nH]c2ccccc12)NC(=O)[C@H](CCC(N)=O)NC(=O)[C@@H](N)CC(N)=O)C(C)(C)SC)C(N)=O (stereo not given in full) (H-NQW[dA][Pen](Me)GH[ξL]M-NH2),GI50,[4],> 100 µM (inactive)
same,GI50,[5],> 100 µM (inactive)
same,GI50,[6],> 100 µM (inactive)
COc1cc2cc(CN(CCO)S(=O)(=O)c3ccccc3Cl)c(O)nc2cc1OC,EC50,[1],> 112 µM (not active)
same,EC50,[2],> 112 µM (not active)
CCc1ccc(S(=O)(=O)NCCc2cn3ccsc3n2)s1,EC50,[1],> 112 µM (not active)
same,EC50,[2],> 112 µM (not active)
COc1ccc(N2CCN(CC(=O)c3ccc(O)cc3O)CC2)cc1,EC50,[1],> 112 µM (not active)
same,EC50,[2],> 112 µM (not active)
Cc1ccc(N2C(=O)CCC2(C#N)c2ccccc2)cc1 (stereo not given),EC50,[7],> 260 µM (inactive)
CCOC(=O)c1cc(-c2ccccc2)nn1Cc1cc(CC)no1,EC50,[8],12.4 µM (active)
same,EC50,[9],7.3 µM (active)
same,EC50,[10],89.1 µM (active)
CCCN1CCC(=O)N([C@H](CSc2ccc(C)cc2)c2ccccc2)CC1,EC50,[8],8.36 µM (active)
same,EC50,[9],5.58 µM (active)
same,EC50,[10],7.04 µM (active)
Cc1ccccc1N(C(=O)c1csnn1)C(C(=O)NC(C)(C)C)c1ccncc1 (stereo not given),EC50,[7],> 260 µM (inactive)
c1ccc(C(c2ccccc2)N2CCN(Cc3nnnn3C3CCCC3)CC2)cc1,EC50,[1],> 112 µM (not active)
same,EC50,[2],> 112 µM (not active)
CN(C)CCOc1cc2c(c3ccccc13)-c1ccccc1C2=O,GI50,[4],0.36 µM (active)
same,GI50,[5],0.589 µM (active)
same,GI50,[6],0.0435 µM (active)
CCOC(=O)c1c(NC(=O)CSc2nc3ccccc3o2)sc(C)c1C,EC50,[7],> 260 µM (inactive)
Cc1ccccc1C(=O)NCCOc1ccccc1Cl,EC50,[7],25.5 µM (active)
CN(C)CCNC(=O)c1cc(Cl)cc2cc3ccccc3nc12,GI50,[4],0.0622 µM (active)
same,GI50,[5],0.378 µM (active)
same,GI50,[6],0.128 µM (active)
CCOC(=O)CNC(=O)NC12CC3CC(CC(C3)C1)C2,GI50,[4],225 µM (inactive)
same,GI50,[5],141 µM (inactive)
same,GI50,[6],63.8 µM (inactive)
CN1N=C(C(=O)N2CCc3c([nH]c4ccccc34)C2c2ccccc2Cl)CCC1=O (stereo not given),EC50,[8],13.2 µM (active)
same,EC50,[9],10.8 µM (active)
same,EC50,[10],9.56 µM (active)
NCCCC(N)(C(=O)O)C(F)F (stereo not given) [EFLORNITHINE],GI50,[4],> 1840 µM (inactive)
same,GI50,[5],1400 µM (inactive)
same,GI50,[6],275 µM (inactive)
CN1CCN(CC(=O)N(C)c2nc(-c3ccccc3)cs2)CC1,EC50,[8],1.12 µM (active)
same,EC50,[9],1.22 µM (active)
COC(=O)C1C(O)C(C)C(O)C(C)(O)/C=C\C=C(C)C(=O)Nc2c(C)c(OC(C)=O)c3c(c2O)C(=O)C(C)=C2OCOC(=C23)C(C)=CC(C)(O)C(O)C(C)C1OC(C)=O (stereo not given),GI50,[4],41.5 µM (inactive)
same,GI50,[5],37 µM (inactive)
same,GI50,[6],30.3 µM (inactive)
O=C1CN2Cc3c(ccc(Cl)c3Cl)N=C2N1 [ANAGRELIDE HYDROCHLORIDE],EC50,[1],> 112 µM (not active)
same,EC50,[2],0.722 µM (active)
Cc1ccccc1C(=O)O/N=C1\CCS(=O)(=O)c2sccc21,EC50,[7],0.943 µM (active)
COc1ccc(NC(=O)c2cc(S(=O)(=O)N3CCc4ccccc43)cn2C)cc1OC,EC50,[1],> 112 µM (not active)
same,EC50,[2],> 112 µM (not active)
COc1ccccc1CNC(=O)c1ccc(NS(=O)(=O)c2cccs2)cc1,EC50,[7],> 260 µM (inactive)
C=C1C[C@@H](O)C[C@@]2(C)C[C@@H]3OC(=O)C(=C)[C@@H]3C[C@H]12,GI50,[4],2.2 µM (inactive)
same,GI50,[5],12.3 µM (inactive)
same,GI50,[6],2.46 µM (inactive)
c1ccc2c(c1)SCCc1cn[nH]c1-2,GI50,[4],> 100 µM (inactive)
same,GI50,[5],> 100 µM (inactive)
same,GI50,[6],> 100 µM (inactive)
NC(=O)c1ccc(NC(=O)CC23CC4CC(CC(Br)(C4)C2)C3)cc1,EC50,[7],> 260 µM (inactive)
C[S+](C)CC1OC(n2cnc3c(N)ncnc32)C(O)C1O (stereo not given),GI50,[4],> 22.5 µM (inactive)
same,GI50,[5],> 225 µM (inactive)
same,GI50,[6],> 225 µM (inactive)
CC1=Nc2cc(C(=O)NCC3CCCO3)ccc2Sc2ccc(Br)cc21 (stereo not given),EC50,[8],> 120 µM (not active)
same,EC50,[9],> 120 µM (not active)
same,EC50,[10],17.8 µM (active)
same,EC50,[11],> 195 µM (not active)
CCOC(=O)/C=C/c1c[nH]c(C(=O)OCC)c1,GI50,[4],> 100 µM (inactive)
same,GI50,[5],> 100 µM (inactive)
same,GI50,[6],> 100 µM (inactive)
Nc1ccc2c(Cl)cc(Cl)cc2c1,IC50,[12],22.7 µM (active)
